Results reported in publication PMC9609996, “SAR Study and Molecular Mechanism Investigation of Novel Naphthoquinone-furan-2-cyanoacryloyl Hybrids with Antitumor Activity” (Pharmaceutics, 2022).

Tests used:
Assay type in all cases: cell-based, human
HCT116 = experiment: CCK-8 anti-proliferation assay, HCT116; conditions: Homo sapiens, HCT-116, 20 μM, mean ± SD, read-out: Inhibition Rate (%) at 20 μM HCT116
Experimental: (§1) Human cervical cancer HeLa, human prostate cancer PC3, human colonic carcinoma HCT116, human lung carcinoma A549, human breast cancer MDA-MB-231, mouse melanoma B16, human ovarian cancer SKOV3, human hepatoma Hep3B, and human liver L02 cells were purchased from the Cell Bank of Shanghai Institute of Biochemistry and Cell Biology, Chinese Academy of Sciences (Shanghai, China). The HeLa, A549, B16, PC3, MDA-MB-231, HCT116, and L02 cells were cultured in Dulbecco’s modified Eagle medium (DMEM, Gibco Inc.; Gaithersburg, MD, USA). All cultures were supplied with 10% fetal bovine serum (FBS; YHSM, Beijing, China), 100 IU/mL of penicillin, and 100 μg/mL of streptomycin, and cells were incubated at 37 °C in an atmosphere of 5% CO2.
(§2) A CCK-8 kit (MCE, USA) was used to perform a CCK-8 assay. Cells were plated and grown in the 96-well plates for the indicated period (48 h) in the incubator, followed by an incubation with the CCK-8 solutions for 1–4 h. Subsequently, the absorbance (450 nm) was measured by a microplate reader. The median inhibitory concentration (IC50) was determined from the dose–response curve. Experiments were performed in a triplicate.

HeLa = experiment: CCK-8 anti-proliferation assay, HeLa; conditions: Homo sapiens, 20 μM, mean ± SD, read-out: Inhibition Rate (%) at 20 μM HeLa
Experimental: as §1, §2

PC3 = experiment: CCK-8 anti-proliferation assay, PC3; conditions: Homo sapiens, PC-3, 20 μM, mean ± SD, read-out: Inhibition Rate (%) at 20 μM PC3
Experimental: as §1, §2

A549 = experiment: CCK-8 anti-proliferation assay, A549; conditions: Homo sapiens, A549, 20 μM, mean ± SD, read-out: Inhibition Rate (%) at 20 μM A549
Experimental: as §1, §2

COc1cc(-c2ccc(/C=C(\C#N)C(=O)NC3CCN(Cc4ccccc4)CC3)o2)c(OC)c2ccccc12 [Compound 4a, (E)-N-(1-benzylpiperidin-4-yl)-2-cyano-3-(5-(1,4-dimethoxynaphthalen-2-yl)furan-2-yl)acrylamide]
inhibition at 20 µM (HCT116): 5.69 ± 0.23% | inhibition at 20 µM (HeLa): 13.6 ± 0.15% | inhibition at 20 µM (PC3): 15.5 ± 0.17% | inhibition at 20 µM (A549): 16.3 ± 0.22%

COc1cc(-c2ccc(/C=C(\C#N)C(=O)N3CCc4ccccc4C3)o2)c(OC)c2ccccc12 [Compound 4b, (E)-3-(5-(1,4-dimethoxynaphthalen-2-yl)furan-2-yl)-2-(1,2,3,4-tetrahydroisoquinoline-2-carbonyl)acrylonitrile]
inhibition at 20 µM (HCT116): 19.6 ± 0.65% | inhibition at 20 µM (HeLa): 11.71 ± 0.04% | inhibition at 20 µM (PC3): 3.88 ± 0.13% | inhibition at 20 µM (A549): 24.2 ± 0.31%

COc1cc(-c2ccc(/C=C(\C#N)C(=O)NCCc3cccs3)o2)c(OC)c2ccccc12 [Compound 4d, (E)-2-cyano-3-(5-(1,4-dimethoxynaphthalen-2-yl)furan-2-yl)-N-(2-(thiophen-2-yl)ethyl)acrylamide]
inhibition at 20 µM (HCT116): 10.8 ± 0.49% | inhibition at 20 µM (HeLa): 11.6 ± 0.79% | inhibition at 20 µM (PC3): 7.17 ± 0.31% | inhibition at 20 µM (A549): 21.58 ± 0.02%

COc1cc(-c2ccc(/C=C(\C#N)C(=O)N3CC4CCCCC4C3)o2)c(OC)c2ccccc12 (stereo not drawn) [Compound 4f, (E)-3-(5-(1,4-dimethoxynaphthalen-2-yl)furan-2-yl)-2-(octahydro-1H-isoindole-2-carbonyl)acrylonitrile]
inhibition at 20 µM (HCT116): 43.7 ± 0.84% | inhibition at 20 µM (PC3): 11.8 ± 0.79%

COc1cc(-c2ccc(/C=C(\C#N)C(=O)NCc3cccc(C(F)(F)F)c3)o2)c(OC)c2ccccc12 [Compound 4g, (E)-2-cyano-3-(5-(1,4-dimethoxynaphthalen-2-yl)furan-2-yl)-N-(3-(trifluoromethyl)benzyl)acrylamide]
inhibition at 20 µM (HCT116): 7.69 ± 0.02% | inhibition at 20 µM (HeLa): 16.1 ± 0.17% | inhibition at 20 µM (PC3): 15.38 ± 0.01% | inhibition at 20 µM (A549): 4.87 ± 0.3%

COc1cc(-c2ccc(/C=C(\C#N)C(=O)NCCN3CCCC3)o2)c(OC)c2ccccc12 [Compound 4i, (E)-2-cyano-3-(5-(1,4-dimethoxynaphthalen-2-yl)furan-2-yl)-N-(2-(pyrrolidin-1-yl)ethyl)acrylamide]
inhibition at 20 µM (HCT116): 29.05 ± 0.08% | inhibition at 20 µM (HeLa): 35 ± 0.41% | inhibition at 20 µM (PC3): 12.29 ± 0.12% | inhibition at 20 µM (A549): 13.9 ± 0.87%

N#C/C(=C\c1ccc(C2=CC(=O)c3ccccc3C2=O)o1)C(=O)NC1CCN(Cc2ccccc2)CC1 [Compound 5a, (E)-N-(1-benzylpiperidin-4-yl)-2-cyano-3-(5-(1,4-dioxo-1,4-dihydronaphthalen-2-yl)furan-2-yl)acrylamide]
inhibition at 20 µM (HCT116): 8.36 ± 0.26% | inhibition at 20 µM (HeLa): 10.4 ± 0.41% | inhibition at 20 µM (PC3): 3.7 ± 0.19% | inhibition at 20 µM (A549): 13.3 ± 0.17%

N#C/C(=C\c1ccc(C2=CC(=O)c3ccccc3C2=O)o1)C(=O)N1CCc2ccccc2C1 [Compound 5b, (E)-3-(5-(1,4-dioxo-1,4-dihydronaphthalen-2-yl)furan-2-yl)-2-(1,2,3,4-tetrahydroisoquinoline-2-carbonyl)acrylonitrile]
inhibition at 20 µM (HCT116): 8.83 ± 0.1% | inhibition at 20 µM (HeLa): 20.5 ± 0.28% | inhibition at 20 µM (PC3): 17.8 ± 0.33% | inhibition at 20 µM (A549): 18.4 ± 0.82%

N#C/C(=C\c1ccc(C2=CC(=O)c3ccccc3C2=O)o1)C(=O)NCCc1cccs1 [Compound 5d, (E)-2-cyano-3-(5-(1,4-dioxo-1,4-dihydronaphthalen-2-yl)furan-2-yl)-N-(2-(thiophen-2-yl)ethyl)acrylamide]
inhibition at 20 µM (HCT116): 26.8 ± 0.94% | inhibition at 20 µM (HeLa): 5.61 ± 0.24% | inhibition at 20 µM (PC3): 15.5 ± 0.2% | inhibition at 20 µM (A549): 17.2 ± 0.35%

CC1(C)CC(NC(=O)/C(C#N)=C/c2ccc(C3=CC(=O)c4ccccc4C3=O)o2)CC(C)(C)N1 [Compound 5e, (E)-2-cyano-3-(5-(1,4-dioxo-1,4-dihydronaphthalen-2-yl)furan-2-yl)-N-(2,2,6,6-tetramethylpiperidin-4-yl)acrylamide]
inhibition at 20 µM (HCT116): 5.97 ± 95% | inhibition at 20 µM (HeLa): 29.73 ± 0.07% | inhibition at 20 µM (PC3): 19.3 ± 0.28% | inhibition at 20 µM (A549): 19.8 ± 0.32%

N#C/C(=C\c1ccc(C2=CC(=O)c3ccccc3C2=O)o1)C(=O)N1CC2CCCCC2C1 (stereo not drawn) [Compound 5f, (E)-3-(5-(1,4-dioxo-1,4-dihydronaphthalen-2-yl)furan-2-yl)-2-(octahydro-1H-isoindole-2-carbonyl)acrylonitrile]
inhibition at 20 µM (HCT116): 3.41 ± 0.26% | inhibition at 20 µM (HeLa): 1.9 ± 0.72% | inhibition at 20 µM (PC3): 11.13 ± 0.03% | inhibition at 20 µM (A549): 13.9 ± 0.14%

COC(=O)c1ccc(-c2cc(OC)c3ccccc3c2OC)o1 [Compound 6, Methyl 5-(1,4-dimethoxynaphthalen-2-yl)furan-2-carboxylate]
inhibition at 20 µM (HCT116): 16.78 ± 0.07% | inhibition at 20 µM (HeLa): 27 ± 0.32% | inhibition at 20 µM (PC3): 21.6 ± 0.83% | inhibition at 20 µM (A549): 21.3 ± 0.45%

COC(=O)c1ccc(C2=CC(=O)c3ccccc3C2=O)o1 [Compound 6a, Methyl 5-(1,4-dioxo-1,4-dihydronaphthalen-2-yl)furan-2-carboxylate]
inhibition at 20 µM (HCT116): 17.67 ± 0.06% | inhibition at 20 µM (HeLa): 26.1 ± 0.66% | inhibition at 20 µM (PC3): 6.93 ± 0.79% | inhibition at 20 µM (A549): 2.15 ± 0.37%

COc1cc(-c2ccc(C(=O)NC3CCN(Cc4ccccc4)CC3)o2)c(OC)c2ccccc12 [Compound 8a, N-(1-benzylpiperidin-4-yl)-5-(1,4-dimethoxynaphthalen-2-yl)furan-2-carboxamide]
inhibition at 20 µM (HCT116): 12.4 ± 0.15% | inhibition at 20 µM (HeLa): 20.86 ± 0.18% | inhibition at 20 µM (PC3): 15.5 ± 0.29% | inhibition at 20 µM (A549): 24.1 ± 0.35%

COc1cc(-c2ccc(C(=O)NC(C)c3ccccc3)o2)c(OC)c2ccccc12 (stereo not drawn) [Compound 8b, 5-(1,4-Dimethoxynaphthalen-2-yl)-N-(1-phenylethyl)furan-2-carboxamide]
inhibition at 20 µM (HCT116): 2.17 ± 0.02% | inhibition at 20 µM (HeLa): 19.33 ± 0.18% | inhibition at 20 µM (PC3): 24.99 ± 0.19% | inhibition at 20 µM (A549): 7.87 ± 0.11%

COc1cc(-c2ccc(C(=O)NCCC(=O)N3CCOCC3)o2)c(OC)c2ccccc12 [Compound 8c, 5-(1,4-Dimethoxynaphthalen-2-yl)-N-(3-morpholino-3-oxopropyl)furan-2-carboxamide]
inhibition at 20 µM (HCT116): 4.73 ± 0.47% | inhibition at 20 µM (PC3): 4.65 ± 0.56% | inhibition at 20 µM (A549): 14.1 ± 0.32%

COc1cc(-c2ccc(C(=O)NCc3cc(C(F)(F)F)ccc3F)o2)c(OC)c2ccccc12 [Compound 8d, 5-(1,4-Dimethoxynaphthalen-2-yl)-N-(2-fluoro-5-(trifluoromethyl)benzyl)furan-2-carboxamide]
inhibition at 20 µM (HCT116): 14.5 ± 0.24% | inhibition at 20 µM (HeLa): 22.7 ± 0.27% | inhibition at 20 µM (PC3): 22.45 ± 0.05% | inhibition at 20 µM (A549): 19.35 ± 0.07%

COc1cc(-c2ccc(C(=O)Nc3cccc(N4CCN(C)CC4)c3)o2)c(OC)c2ccccc12 [Compound 8e, 5-(1,4-Dimethoxynaphthalen-2-yl)-N-(3-(4-methylpiperazin-1-yl)phenyl)furan-2-carboxamide]
inhibition at 20 µM (HCT116): 7.7 ± 0.27% | inhibition at 20 µM (HeLa): 40.58 ± 0.36% | inhibition at 20 µM (PC3): 11.5 ± 0.17% | inhibition at 20 µM (A549): 14.5 ± 0.25%

COc1cc(-c2ccc(C(=O)NC3CCC(F)(F)CC3)o2)c(OC)c2ccccc12 [Compound 8f, N-(4,4-difluorocyclohexyl)-5-(1,4-dimethoxynaphthalen-2-yl)furan-2-carboxamide]
inhibition at 20 µM (HCT116): 27.19 ± 0.15% | inhibition at 20 µM (HeLa): 30.1 ± 0.39% | inhibition at 20 µM (PC3): 17.72 ± 0.12% | inhibition at 20 µM (A549): 28.3 ± 0.33%

COc1cc(-c2ccc(C(=O)NCCCn3ccnc3)o2)c(OC)c2ccccc12 [Compound 8g, N-(3-(1H-imidazol-1-yl)propyl)-5-(1,4-dimethoxynaphthalen-2-yl)furan-2-carboxamide]
inhibition at 20 µM (HCT116): 27.46 ± 0.16% | inhibition at 20 µM (HeLa): 18.28 ± 0.03% | inhibition at 20 µM (PC3): 7.59 ± 0.72% | inhibition at 20 µM (A549): 26.89 ± 0.16%

COc1cc(-c2ccc(C(=O)Nc3ccc(CN4CCN(C)CC4)c(C(F)(F)F)c3)o2)c(OC)c2ccccc12 [Compound 8h, 5-(1,4-Dimethoxynaphthalen-2-yl)-N-(4-((4-methylpiperazin-1-yl)methyl)-3-(trifluoromethyl)phenyl)furan-2-carboxamide]
inhibition at 20 µM (HCT116): 19.6 ± 0.34% | inhibition at 20 µM (HeLa): 28.47 ± 0.1% | inhibition at 20 µM (PC3): 16.5 ± 0.97% | inhibition at 20 µM (A549): 21.6 ± 0.39%

O=C(NC1CCN(Cc2ccccc2)CC1)c1ccc(C2=CC(=O)c3ccccc3C2=O)o1 [Compound 9a, N-(1-benzylpiperidin-4-yl)-5-(1,4-dioxo-1,4-dihydronaphthalen-2-yl)furan-2-carboxamide]
inhibition at 20 µM (HCT116): 33.71 ± 0.13% | inhibition at 20 µM (HeLa): 42.87 ± 0.22% | inhibition at 20 µM (PC3): 2.39 ± 0.09% | inhibition at 20 µM (A549): 20.7 ± 0.49%

CC(NC(=O)c1ccc(C2=CC(=O)c3ccccc3C2=O)o1)c1ccccc1 (stereo not drawn) [Compound 9b, 5-(1,4-Dioxo-1,4-dihydronaphthalen-2-yl)-N-(1-phenylethyl)furan-2-carboxamide]
inhibition at 20 µM (HCT116): 7.22 ± 0.34% | inhibition at 20 µM (HeLa): 18.65 ± 0.16% | inhibition at 20 µM (PC3): 12.82 ± 0.01% | inhibition at 20 µM (A549): 8.8 ± 0.04%

O=C(NCCC(=O)N1CCOCC1)c1ccc(C2=CC(=O)c3ccccc3C2=O)o1 [Compound 9c, 5-(1,4-Dioxo-1,4-dihydronaphthalen-2-yl)-N-(3-morpholino-3-oxopropyl)furan-2-carboxamide]
inhibition at 20 µM (HCT116): 37.21 ± 0.08% | inhibition at 20 µM (HeLa): 5.91 ± 0.29% | inhibition at 20 µM (PC3): 1.45 ± 0.86% | inhibition at 20 µM (A549): 15.1 ± 0.31%
